Among the data in ChEMBL document CHEMBL1143791, “Synthesis of isonicotinoylhydrazones from anacardic acid and their in vitro activity against Mycobacterium smegmatis” (2007) are Activity and MIC values, retold here.

SMILES strings stand for the structures. Converted amounts (≈) assume the structure as drawn. The source made the active and inactive calls. The calls are words filed in the database; no cut-off is given here.

As usually defined, the MIC is the lowest concentration that inhibits growth of the organism. Read a high MIC as weaker potency.

In experiment [1] the test system is Mycobacterium tuberculosis. Put plainly: Antimicrobial activity against Mycobacterium tuberculosis H37Rv at 0.5 ug/ml after 6 weeks. Type of experiment: functional, organism-based.
Experiment [2] has as its system Mycobacterium tuberculosis. Kind of experiment: Antimicrobial activity against Mycobacterium tuberculosis H37Rv at 10 ug/ml after 6 weeks. The format is functional, organism-based.
Experiment [3] deals with Mycolicibacterium smegmatis. Kind of experiment: Antimicrobial activity against Mycobacterium smegmatis str. MC2 155 after 24 hrs by broth dilution method. Type of experiment: functional. Conditions: str. MC2 155, 24 h.
The subject of experiment [4] is Mycolicibacterium smegmatis. Kind of experiment: Antimicrobial activity against Mycobacterium smegmatis mc2 155 after 24 hrs at 0.5 ug/ml by broth dilution method. Type of experiment: functional, organism-based. As to conditions: str. MC2 155. A general note: Dilution methods test growth across graded concentrations, often in twofold steps.
The test system of experiment [5] is Mycolicibacterium smegmatis. Kind of experiment: Antimicrobial activity against Mycobacterium smegmatis str. MC2 155 after 24 hrs at 100 ug/ml by broth dilution method. The format is functional, organism-based.
Experiment [6] concerns Mycolicibacterium smegmatis. Put plainly: Antimicrobial activity against Mycobacterium smegmatis str. MC2 155 after 24 hrs at 1 ug/ml by broth dilution method. Type of experiment: functional.

For the molecule `O=C(N/N=C/CCCCCCCc1c([N+](=O)[O-])ccc(O)c1C(=O)O)c1ccncc1`, the outcome in experiment [1] and in experiment [4] was inactive. In addition, the result in experiment [2] was Active. The molecule further displayed an MIC in experiment [3] of 5 µg/mL (≈ 11.7 µM).

For `CCCCCCCCCCCCCCCc1c([N+](=O)[O-])ccc(O)c1C(=O)O`, in experiment [5], the result was inactive.

Consider `C=CC/C=C\C/C=C\CCCCCCCc1cccc(O)c1C(=O)O`, for which the result in experiment [5] was inactive.

On to `NNC(=O)c1ccncc1` [ISONIAZID], for which the MIC in experiment [3] was 1.5 µg/mL (≈ 10.9 µM). Moreover, the Activity in experiment [6] is listed as 36%.

In the case of `O=C(N/N=C/CCCCCCCc1cccc(O)c1C(=O)O)c1ccncc1`, the result in experiment [1] and in experiment [4] was inactive. The result in experiment [2] was Active. Moreover, in experiment [3], the MIC turned out to be 4 µg/mL (≈ 10.4 µM).
